Non-standard residues stand in square brackets, D forms with d. Residues, ends and D or L forms follow the SMILES beside them. NFurfurylGly = O=C(O)CNCc1ccco1; Gly(N-CH2CH2OH) = O=C(O)CNCCO; Nphe = O=C(O)CNCc1ccccc1; NPrGly = CCCNCC(=O)O
Key:
[1] = system: Jurket cells; test: Toxicity, cell death by propidium iodide staining and flow cytometry, Jurkat; format: cell-based
Description: (§1) The toxicity of Compound 2 was studied at 100 μM and 200 μM concentrations in Jurket cells (FIG. 5, left), BJAB B cells (FIG. 5, middle left), human primary CD4^+ T cells (FIG. 5, middle right), and human primary monocytes (FIG. 5, right). Cell death was assessed by propidium iodide staining and flow cytometry. […] Treatment with cycloheximide (CHX) (Sigma Aldrich), a generic inhibitor of translation, was used as a positive control for cell death induction.

[2] = system: human primary CD4+ T cells; test: Toxicity, cell death by propidium iodide staining and flow cytometry, primary CD4+ T cells; format: cell-based
Description: as §1

[3] = system: BJAB B cells; test: Toxicity, cell death by propidium iodide staining and flow cytometry, BJAB; format: cell-based
Description: as §1

[4] = system: B cells (BJAB); test: Non-specific activity in B cells; format: cell-based
Description: (§2) Compound 2 was further studied in B cells (BJAB) and macrophages (RAW 264.7). BJAB cells were grown in RPMI medium and RAW 264.7 cells were grown in DMEM medium supplemented with 100 U/mL penicillin/streptomycin, 4 mM L-glutamine and 10% fetal bovine serum.

[5] = system: Leukemia K562 cells; test: Cell death in leukemia K562 cells; format: cell-based; conditions: Compound 2 at 100 μM; compared with OSMI1 at 50 μM; FIG. 8
Description: The effect of Compound 2 on […] cells was studied. Leukemia K562 cells were treated with HBP inhibitor OSMI1 (50 μM) or Compound 2 (100 μM). Scrambled peptoid Compound 3 was used as a control.

[6] = molecular target: T1, c-Rel (Homo sapiens, UniProt Q04864); test: Nuclear translocation of c-Rel, Western blot of cytoplasmic and nuclear extracts; format: cell-based; conditions: FIG. 6 top
T1 construct: endogenous in cells
T1 sequence (Q04864 1-619): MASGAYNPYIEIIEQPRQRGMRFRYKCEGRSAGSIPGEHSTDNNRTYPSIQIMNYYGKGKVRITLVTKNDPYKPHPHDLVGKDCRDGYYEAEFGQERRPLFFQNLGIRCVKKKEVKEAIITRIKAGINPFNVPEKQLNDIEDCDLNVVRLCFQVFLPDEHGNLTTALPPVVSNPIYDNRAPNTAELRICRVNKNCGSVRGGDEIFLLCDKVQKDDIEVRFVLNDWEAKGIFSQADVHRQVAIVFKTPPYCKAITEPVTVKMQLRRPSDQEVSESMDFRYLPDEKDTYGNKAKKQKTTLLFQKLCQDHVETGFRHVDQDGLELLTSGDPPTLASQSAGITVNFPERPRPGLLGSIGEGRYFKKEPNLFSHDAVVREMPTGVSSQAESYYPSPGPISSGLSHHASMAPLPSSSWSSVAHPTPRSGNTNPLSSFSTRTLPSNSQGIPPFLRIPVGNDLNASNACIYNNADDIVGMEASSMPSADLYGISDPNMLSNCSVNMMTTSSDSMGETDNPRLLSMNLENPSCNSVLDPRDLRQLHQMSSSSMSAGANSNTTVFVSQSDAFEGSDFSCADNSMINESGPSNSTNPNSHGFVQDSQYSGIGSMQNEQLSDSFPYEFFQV
Description: Activation of c-Rel involves signal-induced translocation of c-Rel from the cytoplasm to the nucleus and its subsequent DNA binding and gene expression. Thus, the effect of treatment with Compound 2 and Compound 3 (comparative) on nuclear translocation of c-Rel were examined. Cytoplasmic and nuclear extracts were prepared and Western blotting was performed as described in DeJesus, T. J. and Ramakrishnan, P. “NF-kappaB c-Rel Dictates the Inflammatory Threshold by Acting as a Transcriptional Repressor.” iScience 23, 100876 (2020).

[7] = system: macrophages (RAW 264.7); test: Non-specific activity in macrophages; format: cell-based; conditions: RAW 264.7 cells
Description: as §2

[8] = molecular target: T2, O-GlcNAcylated c-Rel (Homo sapiens, UniProt Q04864); test: Oligonucleotide pull down assay, c-Rel binding to CD28RE DNA; conditions: Jurket cells, anti-CD3/CD28 and Thiamet-G; Compound 2 at 50 μM
T2 construct: endogenous in cells; host or cells: Jurkat T cells
T2 sequence (Q04864 1-619): T1 sequence (Q04864 1-619)
Description: Oligonucleotide pull down assays were performed to examine whether Compound 2 binds to O-GlcNAcylated c-Rel and thus, competitively prevents its binding to CD28RE. Jurket cells were treated with anti-CD3/CD28 antibodies to trigger TCR activation and c-Rel nuclear translocation. Cells were contacted with Thiamet-G (an O-GlcNAse inhibitor) (Sigma Aldrich) to enhance cellular O-GlcNAcylation.

[9] = system: human primary monocytes; test: Toxicity, cell death by propidium iodide staining and flow cytometry, primary monocytes; format: cell-based; conditions: 100 μM and 200 μM, 40 hours post-treatment
Description: as §1

[10] = molecular target: T3, O-GlcNAcylated c-Rel (Homo sapiens, UniProt Q04864); test: TCR-induced O-GlcNAcylated-c-Rel-dependent gene expression in primary CD4+ T cells; format: cell-based; conditions: 100 μM
T3 construct: endogenous in cells; host or cells: primary CD4+ T cells from human PBMC
T3 sequence (Q04864 2-587 isoform Q04864-2): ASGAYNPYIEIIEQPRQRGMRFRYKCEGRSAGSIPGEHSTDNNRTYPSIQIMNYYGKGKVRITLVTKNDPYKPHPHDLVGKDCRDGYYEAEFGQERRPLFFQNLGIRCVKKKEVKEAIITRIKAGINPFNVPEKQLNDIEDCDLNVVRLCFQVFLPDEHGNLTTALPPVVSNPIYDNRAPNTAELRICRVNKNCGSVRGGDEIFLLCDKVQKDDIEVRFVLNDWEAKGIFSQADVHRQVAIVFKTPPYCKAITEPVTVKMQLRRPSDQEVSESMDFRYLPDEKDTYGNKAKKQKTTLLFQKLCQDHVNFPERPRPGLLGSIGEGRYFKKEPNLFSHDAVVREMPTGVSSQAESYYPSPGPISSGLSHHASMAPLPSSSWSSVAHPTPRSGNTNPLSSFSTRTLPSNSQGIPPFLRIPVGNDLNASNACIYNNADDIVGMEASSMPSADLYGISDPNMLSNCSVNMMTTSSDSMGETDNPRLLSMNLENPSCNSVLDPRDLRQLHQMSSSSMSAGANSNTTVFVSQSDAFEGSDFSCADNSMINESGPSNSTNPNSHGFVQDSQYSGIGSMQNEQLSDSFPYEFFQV
Description: The effect of Compound 2 was studied in primary CD4^+ T cells isolated from human peripheral blood mononuclear cells. CD4+ T cells were […] were isolated by magnetic sorting (Miltenyi Biotec) and cultured in supplemented RPMI medium. Cells were treated with 100 μM of Compound 2 twice—at the start of the experiment and at 24 hrs.

[11] = molecular target: T2, O-GlcNAcylated c-Rel; test: TCR-induced O-GlcNAcylation-dependent GMCSF and IL-2 expression in Jurkat T cells; format: cell-based; conditions: for expression of GMCSF / expression of IL-2: Compound 2 100 μM and 200 μM, 16 hours, FIG. 3
Description: It is further known that a mutation of c-Rel at S350 completely abrogates T cell receptor (TCR)-induced O-GlcNAcylation-dependent expression of GMCSF and IL-2 (Ramakrishnan, 2013). Thus, the specific inhibition of c-Rel O-GlcNAcylation by Compound 2 was studied. Jurkat cells were grown in RPMI medium at 1×10^6 cells/2 mL. The cells were treated with compound 2 (100 μM and 200 μM) for 16 hours. Cell death was assessed by propidium iodide (Biolegend) staining and flow cytometry. Following treatment with Compound 2, the resulting expression of GMCSF and IL-2 was measured. […] Further, treatment with Compound 2 specifically affected only the O-GlcNAcylation-dependent enhancement of IL-2 and GMCSF expression.
The range of concentrations at which Compound 2 is effective in suppression O-GlcNAcylation c-Rel function was studied. Jurket cells were exposed to Compound 2 in concentrations of 2 mM, 500 μM, 200 μM, 100 μM, 50 μM and 10 μM peptoid on TCR-induced GMCSF expression.
The effect of the scrambled peptoid, Compound 3, was also studied (FIG. 3, bottom right panel).

[12] = human primary T-cells, treated twice (start and 24 hrs)

C[C@@H]1C[C@@H]([C@H](O)CC2CC(=O)NC(=O)C2)C(=O)[C@@H](C)C1 [CHX, cycloheximide, reference compound]
cell death, positive control ([1]; Jurkat cells, 5 μg/mL, 16 hours post-treatment): significant cell death
cell death, positive control ([2]; human primary T cells, 5 μg/mL, 16 hours post-treatment): significant cell death
cell death, positive control ([3]; 5 μg/mL, 16 hours post-treatment): significant cell death

CCCNCC(=O)N(CC(=O)N(CC(=O)N(CCO)CC(N)=O)Cc1ccccc1)Cc1ccco1 [Compound 2] (H-[NPrGly][NFurfurylGly][Nphe][Gly(N-CH2CH2OH)]-NH2)
non-specific activity [4]: does not exhibit any non-specific activity
cell death ([1]; Jurket cells, 100 μM and 200 μM, 40 hours post-treatment): non-significant cell death
K562 cell death [5]: nearly comparable to that caused by known OGT inhibitor OSMI1
cell death ([2]; human primary CD4+ T cells, 100 μM and 200 μM, 40 hours post-treatment): non-significant cell death
change in nuclear c-Rel levels [6]: no significant change
non-specific activity [7]: does not exhibit any non-specific activity
binding of c-Rel to CD28RE DNA [8]: reduced the binding of c-Rel
cell death ([3]; 100 μM and 200 μM, 40 hours post-treatment): non-significant cell death
cell death [9]: non-significant cell death
TCR-induced O-GlcNAcylation-dependent increase in expression of GMCSF [10, 12]: effectively and significantly decreased
TCR-induced O-GlcNAcylation-dependent increase in expression of IL-2 [10, 12]: effectively and significantly decreased
TCR-induced expression level of GMCSF, IL-2 and other NF-kappaB-induced genes such as A20 and I-kappa-B-alpha ([10]; primary T cells): did not block
TCR-induced expression levels of IL-2 and GMCSF (not O-GlcNAcylation-dependent) [11]: did not block
O-GlcNAcylation-dependent GMCSF expression ([11]; 200 μM): near complete suppression
GMCSF expression levels at higher concentrations ([11]; 500 μM and 2 mM): did not further decrease
expression of GMCSF [11]: significantly decreased
expression of IL-2 [11]: significantly decreased

CCCN(CC(=O)N(CC(N)=O)Cc1ccccc1)C(=O)CN(CCO)C(=O)CNCc1ccco1 [Compound 3] (H-[NFurfurylGly][Gly(N-CH2CH2OH)][NPrGly][Nphe]-NH2)
K562 cell death [5]: no significant cell death
change in nuclear c-Rel levels [6]: no significant change
binding of c-Rel to CD28RE DNA [8]: did not block the binding of c-Rel
inhibitory effect on GMCSF expression, scrambled peptoid control ([11]; FIG. 3 bottom right): no inhibitory effect

COc1ccccc1[C@@H](NS(=O)(=O)c1ccc2[nH]c(=O)ccc2c1)C(=O)N(Cc1ccco1)Cc1cccs1 [OSMI1, reference compound]
expression of GMCSF [11]: well below the TCR-induced levels
expression of IL-2 [11]: well below the TCR-induced levels
